Results published in ChEMBL document CHEMBL3431459, “Roche carnitine palmitoyltransferase modulator screening data (supplementary data associated with the publication CHEMBL2216752)”.
In brackets after ≈: the same amount, converted by molar mass.

Assays:
[1] = biological target: T1, Carnitine O-palmitoyltransferase 1, liver isoform (Homo sapiens, UniProt P50416); test: (§1) SUPPLEMENTARY: Inhibition of Carnitine palmitoyltransferase 1, liver isoform
T1 sequence (P50416 whole entry): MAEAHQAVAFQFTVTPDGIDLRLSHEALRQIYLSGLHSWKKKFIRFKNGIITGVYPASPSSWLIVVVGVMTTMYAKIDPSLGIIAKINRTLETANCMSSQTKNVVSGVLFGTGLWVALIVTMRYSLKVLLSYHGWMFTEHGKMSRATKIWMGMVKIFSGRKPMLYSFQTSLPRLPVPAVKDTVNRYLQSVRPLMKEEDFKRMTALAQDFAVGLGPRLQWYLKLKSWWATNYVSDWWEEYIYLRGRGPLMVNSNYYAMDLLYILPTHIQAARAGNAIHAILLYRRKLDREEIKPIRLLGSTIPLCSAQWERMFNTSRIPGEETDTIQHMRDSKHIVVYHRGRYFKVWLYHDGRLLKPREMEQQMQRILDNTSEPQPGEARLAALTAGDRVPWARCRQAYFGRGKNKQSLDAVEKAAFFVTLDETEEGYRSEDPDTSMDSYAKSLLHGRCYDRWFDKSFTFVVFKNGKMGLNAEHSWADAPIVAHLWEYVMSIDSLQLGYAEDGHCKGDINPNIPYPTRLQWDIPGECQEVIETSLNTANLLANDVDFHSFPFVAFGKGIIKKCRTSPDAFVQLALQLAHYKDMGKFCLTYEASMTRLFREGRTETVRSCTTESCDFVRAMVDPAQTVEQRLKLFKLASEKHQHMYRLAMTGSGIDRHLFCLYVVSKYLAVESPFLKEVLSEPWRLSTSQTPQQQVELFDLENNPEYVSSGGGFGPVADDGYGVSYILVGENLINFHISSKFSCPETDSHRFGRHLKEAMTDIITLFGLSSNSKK

[2] = biological target: T2, Carnitine O-palmitoyltransferase 1, liver isoform (Rattus norvegicus, UniProt P32198); test: as §1
T2 sequence (P32198 whole entry): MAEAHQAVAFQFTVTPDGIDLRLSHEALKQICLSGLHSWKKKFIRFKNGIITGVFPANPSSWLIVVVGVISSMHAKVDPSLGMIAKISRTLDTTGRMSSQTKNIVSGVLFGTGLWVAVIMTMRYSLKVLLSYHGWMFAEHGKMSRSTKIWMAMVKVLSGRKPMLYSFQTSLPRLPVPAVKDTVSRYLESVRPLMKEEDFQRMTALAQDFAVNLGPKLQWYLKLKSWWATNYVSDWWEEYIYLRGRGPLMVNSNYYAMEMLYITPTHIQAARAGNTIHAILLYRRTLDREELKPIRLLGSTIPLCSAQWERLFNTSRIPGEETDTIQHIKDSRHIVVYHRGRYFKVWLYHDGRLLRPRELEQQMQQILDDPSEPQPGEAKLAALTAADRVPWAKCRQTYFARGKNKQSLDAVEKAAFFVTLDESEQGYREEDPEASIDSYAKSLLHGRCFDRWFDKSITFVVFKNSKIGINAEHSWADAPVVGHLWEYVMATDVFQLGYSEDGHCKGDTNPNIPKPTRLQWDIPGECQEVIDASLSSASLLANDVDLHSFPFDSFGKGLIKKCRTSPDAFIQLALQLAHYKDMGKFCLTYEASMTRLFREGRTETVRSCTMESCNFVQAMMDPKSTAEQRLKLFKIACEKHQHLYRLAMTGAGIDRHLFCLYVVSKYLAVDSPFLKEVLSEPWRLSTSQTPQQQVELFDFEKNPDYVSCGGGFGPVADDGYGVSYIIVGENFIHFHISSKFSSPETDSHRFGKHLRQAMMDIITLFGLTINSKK

[3] = SUPPLEMENTARY: PAMPA permeability assay; type: physicochemical; conditions: read-out: Permeability
[4] = biological target: T3, Carnitine O-palmitoyltransferase 1, muscle isoform (Homo sapiens, UniProt Q92523); test: SUPPLEMENTARY: Inhibition of Carnitine palmitoyltransferase 1, muscle isoform; set-up: species or system Muscle tissue
T3 sequence (Q92523 whole entry): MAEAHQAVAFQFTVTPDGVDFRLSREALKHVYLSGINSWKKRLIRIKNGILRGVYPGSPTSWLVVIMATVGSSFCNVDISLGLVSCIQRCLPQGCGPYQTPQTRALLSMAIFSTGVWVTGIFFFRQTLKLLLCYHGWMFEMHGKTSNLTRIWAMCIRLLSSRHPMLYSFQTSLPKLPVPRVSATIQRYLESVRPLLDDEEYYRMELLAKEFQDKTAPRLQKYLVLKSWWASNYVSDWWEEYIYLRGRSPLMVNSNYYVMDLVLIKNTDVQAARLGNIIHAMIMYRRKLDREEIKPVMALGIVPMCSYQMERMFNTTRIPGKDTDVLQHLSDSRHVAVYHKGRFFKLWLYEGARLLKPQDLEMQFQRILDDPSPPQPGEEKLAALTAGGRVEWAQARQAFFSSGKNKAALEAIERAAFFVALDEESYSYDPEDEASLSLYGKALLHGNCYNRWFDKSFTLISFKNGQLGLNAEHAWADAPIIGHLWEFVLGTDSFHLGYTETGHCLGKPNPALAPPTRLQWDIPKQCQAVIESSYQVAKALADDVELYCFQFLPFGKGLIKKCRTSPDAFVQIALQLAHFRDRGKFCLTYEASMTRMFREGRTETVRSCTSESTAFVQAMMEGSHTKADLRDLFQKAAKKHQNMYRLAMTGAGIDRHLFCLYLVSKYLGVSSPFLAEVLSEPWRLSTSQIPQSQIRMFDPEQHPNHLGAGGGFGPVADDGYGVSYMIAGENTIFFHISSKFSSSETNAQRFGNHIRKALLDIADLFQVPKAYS

[5] = SUPPLEMENTARY: Lipophilicity (log D) Determination by high-throughput shake-flask; type: physicochemical; conditions: octanol/water
[6] = biological target: T4, Carnitine O-palmitoyltransferase 2, mitochondrial (Homo sapiens, UniProt P23786); test: (§2) SUPPLEMENTARY: Inhibition of Carnitine palmitoyltransferase 2
T4 sequence (P23786 whole entry): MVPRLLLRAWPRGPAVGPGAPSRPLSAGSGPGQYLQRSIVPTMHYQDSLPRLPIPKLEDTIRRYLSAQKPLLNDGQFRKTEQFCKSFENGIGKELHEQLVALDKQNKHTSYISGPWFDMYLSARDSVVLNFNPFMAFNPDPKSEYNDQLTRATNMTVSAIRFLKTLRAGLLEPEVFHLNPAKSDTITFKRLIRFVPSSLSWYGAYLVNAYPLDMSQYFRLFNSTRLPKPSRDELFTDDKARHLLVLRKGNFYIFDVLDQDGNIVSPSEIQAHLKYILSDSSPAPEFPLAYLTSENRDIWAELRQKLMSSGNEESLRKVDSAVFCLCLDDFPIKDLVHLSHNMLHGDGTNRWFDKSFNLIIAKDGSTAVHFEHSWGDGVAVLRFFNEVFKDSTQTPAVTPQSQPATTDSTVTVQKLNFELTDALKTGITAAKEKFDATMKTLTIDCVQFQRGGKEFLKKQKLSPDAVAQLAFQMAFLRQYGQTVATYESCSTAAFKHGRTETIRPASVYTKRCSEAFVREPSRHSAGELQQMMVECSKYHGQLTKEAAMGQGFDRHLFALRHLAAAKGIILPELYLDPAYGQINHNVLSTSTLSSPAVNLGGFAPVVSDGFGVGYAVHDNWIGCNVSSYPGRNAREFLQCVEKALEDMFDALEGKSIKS

[7] = biological target: T5, Carnitine O-palmitoyltransferase 2, mitochondrial (Rattus norvegicus, UniProt P18886); test: as §2
T5 sequence (P18886 whole entry): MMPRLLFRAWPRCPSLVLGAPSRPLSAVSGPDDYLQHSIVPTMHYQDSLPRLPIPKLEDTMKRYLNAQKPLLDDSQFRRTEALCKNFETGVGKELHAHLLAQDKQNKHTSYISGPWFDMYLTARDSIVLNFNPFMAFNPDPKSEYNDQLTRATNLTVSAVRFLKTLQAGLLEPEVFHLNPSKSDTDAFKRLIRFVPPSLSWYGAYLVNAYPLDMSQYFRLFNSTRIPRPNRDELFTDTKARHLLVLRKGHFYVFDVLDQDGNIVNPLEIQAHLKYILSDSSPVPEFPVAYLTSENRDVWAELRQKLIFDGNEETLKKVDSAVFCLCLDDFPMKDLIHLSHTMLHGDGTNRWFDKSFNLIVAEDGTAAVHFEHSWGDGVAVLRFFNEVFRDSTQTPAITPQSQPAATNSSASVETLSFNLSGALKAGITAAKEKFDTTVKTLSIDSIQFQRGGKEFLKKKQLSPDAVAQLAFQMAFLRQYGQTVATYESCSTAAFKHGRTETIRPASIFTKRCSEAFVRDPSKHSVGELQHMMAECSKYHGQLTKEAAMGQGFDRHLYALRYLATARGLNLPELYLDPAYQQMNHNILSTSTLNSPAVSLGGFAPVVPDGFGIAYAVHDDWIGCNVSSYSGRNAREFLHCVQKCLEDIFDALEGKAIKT

[8] = SUPPLEMENTARY: Lyophilisation Solubility Assay (LYSA); type: physicochemical; conditions: read-out: Kinetic_solubility

SMILES | IC50 [1] [nM] | IC50 [2] [nM] | Papp [3] [×10⁻⁶ cm/s] | IC50 [4] [nM] | logD [5] | IC50 [6] [nM] | IC50 [7] [nM] | solubility kinetic [8] [µg/mL]
CN(C)C(=O)CCC(=O)Nc1cc(F)cc(-c2noc([C@H]3CCCCN3C(=O)COc3ccccc3)n2)c1 | 111 | 253 | 0.83 | > 100000 | 3.16 | 14100 | > 100000 | < 1
COc1ccc(Cl)cc1CN1C(=O)OC(C)(C)c2ccc(C(=O)Nc3ccc(C(=O)O)cc3)cc21 | 88.5 | 96.8 | 1.81 | 6240 | 2.38 | 10800 | 28100 | 3 (≈ 6.06 µM)
CCOC(=O)c1cncc(-c2noc([C@H]3CCCCN3C(=O)COc3ccccc3)n2)c1 | 78.6 | 399 | 1.56 | > 100000 | 3.38 | 24300 | > 100000 | 9 (≈ 20.6 µM)
O=C(COc1ccccc1)N1CCCC[C@@H]1c1noc(-c2ccc(-n3cncn3)cc2)n1 | 91.2 | 96.3 | 2.25 | > 100000 | 3.08 | 33400 | > 100000 | 11 (≈ 25.6 µM)
COc1ccc(Cl)cc1S(=O)(=O)N[C@@H]1CCCN(C(=O)COc2ccccc2)C1 | 134 | 95.4 | 1.36 | 51800 | 2.59 | 21000 | > 100000 | 64 (≈ 146 µM)
O=C1Cc2cc(-c3noc([C@H]4CCCCN4C(=O)COc4ccccc4)n3)ccc2N1 | 13.2 | 70.8 | 2.61 | 27600 | 2.93 | 42900 | 53500 | 14.5 (≈ 34.7 µM)
O=C(COc1ccccc1)N1CCCC[C@@H]1c1nc(-c2cc[nH]c(=O)c2)no1 | 83.4 | 337 | 5.39 | > 100000 | 1.9 | > 100000 | 88700 | 275 (≈ 723 µM)
CCC(=O)Nc1cccc(-c2n[nH]c([C@H]3CCCCN3C(=O)COc3ccccc3)n2)c1 | 35.6 | 330 | 2.89 | > 100000 | 2.96 | 65700 | 76200 | 56 (≈ 129 µM)

Continued, values first:

IC50 [1] [nM] | IC50 [2] [nM] | Papp [3] [×10⁻⁶ cm/s] | IC50 [4] [nM] | logD [5] | IC50 [6] [nM] | IC50 [7] [nM] | solubility kinetic [8] [µg/mL] | SMILES
219 | 89.8 | 0.85 | 9620 | -0.29 | > 100000 | > 100000 | 417 (≈ 778 µM) | COc1ccc(Cl)cc1CN1C(=O)CS(=O)(=O)c2ccc(C(=O)Nc3nc(CC(=O)O)cs3)cc21
153 | 261 | 0.01 | 4380 | -1.09 | > 100000 | > 100000 | 378 (≈ 802 µM) | O=C(O)c1ccc(NC(=O)c2ccc(NS(=O)(=O)c3cc(Cl)cc(Cl)c3)s2)cc1
92.2 | 46.7 | 1.99 | 1180 | 0.6 | 584 | 3880 | 493 (≈ 950 µM) | COc1ccc(Cl)cc1S(=O)(=O)N1CC(C)c2ccc(C(=O)Nc3ccc(C(=O)O)c(F)c3)cc21 (configuration not stated)
56.1 | 55.2 | 3.08 | 1080 | 0.14 | > 100000 | > 100000 | > 631 | Cc1cccc(S(=O)(=O)N2CCOc3ccc(C(=O)Nc4nc(CC(=O)O)cs4)cc32)c1
84 | 70.5 | 2.57 | 400 | 2.6 | 1990 | 9040 | 7 (≈ 13 µM) | COc1ccc(Cl)cc1S(=O)(=O)N1CCSc2ccc(C(=O)Nc3ccc(C(=O)O)c(F)c3)cc21
181 | 61.9 | 3.56 | 703 | 2.74 | > 100000 | > 100000 | 108 (≈ 190 µM) | CCCN(c1cc(C(=O)Nc2ncc(CC(=O)O)s2)cc2c1OCO2)S(=O)(=O)c1cc(Cl)ccc1OC
